Source: patent US20210317140A1, “Heterocyclic Compounds and Methods of Use” (MEDIVATION TECHNOLOGIES, INC, priority 2013, published 2021)

Columns and labels:
[1] = molecular target: T1, BMX/ETK (Homo sapiens, UniProt P51813); test: BMX/ETK kinase profiling (BTK protocol); type: biochemical; settings: for BMX/ETK @ 0.3 μM (% Inh): 0.3 μM compound; for IC50: 10 dose IC50
T1 construct: purchased Reaction Biology Corporation
T1 sequence (P51813 1-675): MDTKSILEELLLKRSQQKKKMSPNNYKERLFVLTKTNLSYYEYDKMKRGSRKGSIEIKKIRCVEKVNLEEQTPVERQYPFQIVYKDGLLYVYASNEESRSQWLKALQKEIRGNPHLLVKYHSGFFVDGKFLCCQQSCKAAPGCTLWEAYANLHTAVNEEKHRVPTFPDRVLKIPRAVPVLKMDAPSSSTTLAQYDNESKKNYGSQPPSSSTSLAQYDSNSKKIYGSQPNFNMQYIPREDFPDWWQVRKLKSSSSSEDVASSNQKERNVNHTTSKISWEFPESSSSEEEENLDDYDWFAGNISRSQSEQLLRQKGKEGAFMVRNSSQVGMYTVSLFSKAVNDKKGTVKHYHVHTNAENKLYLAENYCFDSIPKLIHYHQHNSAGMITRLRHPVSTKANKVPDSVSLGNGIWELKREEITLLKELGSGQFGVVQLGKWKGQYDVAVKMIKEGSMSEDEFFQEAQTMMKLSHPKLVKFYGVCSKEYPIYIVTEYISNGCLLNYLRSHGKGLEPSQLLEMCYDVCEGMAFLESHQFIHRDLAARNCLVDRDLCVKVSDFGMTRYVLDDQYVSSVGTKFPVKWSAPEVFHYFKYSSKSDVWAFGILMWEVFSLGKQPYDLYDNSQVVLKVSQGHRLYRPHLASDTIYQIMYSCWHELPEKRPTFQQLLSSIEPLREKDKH
Experimental: BTK assay: In vitro profiling protein kinases was performed using the “HotSpot” assay platform. Briefly, specific kinase/substrate pairs along with required cofactors were prepared in reaction buffer. Compounds were prepared as 10 mM stock solutions in DMSO. Compounds were delivered into the reaction, followed 15-20 minutes later by addition of a mixture of ATP (Sigma, St. Louis Mo.) and ^33P ATP (Perkin Elmer, Waltham Mass.) to a final concentration of 10 μM. Reactions were carried out at RT for 120 min, followed by spotting of the reactions onto P81 ion exchange filter paper (Whatman Inc., Piscataway, N.J.). Unbound phosphate was removed by extensive washing of filters in 0.75% Phosphoric acid. […] IC50 values and curve fits were obtained using Prism (GraphPad Software). Buffer Conditions: 20 mM Hepes (pH 7.5), 10 mM MgCl2, 1 mM EGTA, 0.02% Brij35, 0.02 mg/mL BSA, 0.1 mM Na3VO4, 2 mM DTT, 1% DMSO.
Compounds of the invention were profiled in a 10 dose IC50 panel against BMX/ETK, ITK and TEC kinases, provided by Reaction Biology Corporation, applied to the BTK protocol provided in Example B1.

[2] = molecular target: T2, PI3Kα (Homo sapiens, UniProt P42336); test: PI3Kα isoform profiling (PI3Kδ protocol); type: biochemical; settings: for PI3Kα @ 0.3 μM (% Inh): 0.3 μM compound; for IC50: 10 dose IC50
T2 construct: purchased Reaction Biology Corporation
T2 sequence (P42336 whole entry, canonical isoform): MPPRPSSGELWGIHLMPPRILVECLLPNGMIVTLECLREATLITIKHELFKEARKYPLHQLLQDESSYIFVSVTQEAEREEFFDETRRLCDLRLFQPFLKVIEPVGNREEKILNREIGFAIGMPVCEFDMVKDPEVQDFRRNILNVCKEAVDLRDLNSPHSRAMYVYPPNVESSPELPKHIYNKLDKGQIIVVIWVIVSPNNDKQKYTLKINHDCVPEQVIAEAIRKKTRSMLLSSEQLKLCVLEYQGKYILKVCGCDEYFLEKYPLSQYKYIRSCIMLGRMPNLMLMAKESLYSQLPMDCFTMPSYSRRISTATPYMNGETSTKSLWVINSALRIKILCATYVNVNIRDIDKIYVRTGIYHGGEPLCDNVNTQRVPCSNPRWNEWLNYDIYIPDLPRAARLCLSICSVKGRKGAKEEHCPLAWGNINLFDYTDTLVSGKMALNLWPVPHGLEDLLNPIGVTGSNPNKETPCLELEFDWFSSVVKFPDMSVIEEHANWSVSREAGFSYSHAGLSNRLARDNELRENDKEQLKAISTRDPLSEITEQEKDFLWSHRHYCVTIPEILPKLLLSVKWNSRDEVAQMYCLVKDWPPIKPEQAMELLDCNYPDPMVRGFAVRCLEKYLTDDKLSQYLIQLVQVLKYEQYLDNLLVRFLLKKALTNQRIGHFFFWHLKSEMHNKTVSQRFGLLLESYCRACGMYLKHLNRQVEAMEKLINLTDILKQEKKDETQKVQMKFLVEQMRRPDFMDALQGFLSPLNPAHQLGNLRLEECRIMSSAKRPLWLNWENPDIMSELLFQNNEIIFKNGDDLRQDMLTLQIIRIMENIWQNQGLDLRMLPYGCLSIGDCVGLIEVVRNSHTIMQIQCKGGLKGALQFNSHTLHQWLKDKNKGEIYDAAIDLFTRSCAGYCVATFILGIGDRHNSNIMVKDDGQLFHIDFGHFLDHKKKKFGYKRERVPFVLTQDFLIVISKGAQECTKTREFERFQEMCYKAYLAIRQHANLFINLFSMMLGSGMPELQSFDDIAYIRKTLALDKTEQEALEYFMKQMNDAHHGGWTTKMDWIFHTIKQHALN
T2 sequence (P27986 whole entry partner, canonical isoform): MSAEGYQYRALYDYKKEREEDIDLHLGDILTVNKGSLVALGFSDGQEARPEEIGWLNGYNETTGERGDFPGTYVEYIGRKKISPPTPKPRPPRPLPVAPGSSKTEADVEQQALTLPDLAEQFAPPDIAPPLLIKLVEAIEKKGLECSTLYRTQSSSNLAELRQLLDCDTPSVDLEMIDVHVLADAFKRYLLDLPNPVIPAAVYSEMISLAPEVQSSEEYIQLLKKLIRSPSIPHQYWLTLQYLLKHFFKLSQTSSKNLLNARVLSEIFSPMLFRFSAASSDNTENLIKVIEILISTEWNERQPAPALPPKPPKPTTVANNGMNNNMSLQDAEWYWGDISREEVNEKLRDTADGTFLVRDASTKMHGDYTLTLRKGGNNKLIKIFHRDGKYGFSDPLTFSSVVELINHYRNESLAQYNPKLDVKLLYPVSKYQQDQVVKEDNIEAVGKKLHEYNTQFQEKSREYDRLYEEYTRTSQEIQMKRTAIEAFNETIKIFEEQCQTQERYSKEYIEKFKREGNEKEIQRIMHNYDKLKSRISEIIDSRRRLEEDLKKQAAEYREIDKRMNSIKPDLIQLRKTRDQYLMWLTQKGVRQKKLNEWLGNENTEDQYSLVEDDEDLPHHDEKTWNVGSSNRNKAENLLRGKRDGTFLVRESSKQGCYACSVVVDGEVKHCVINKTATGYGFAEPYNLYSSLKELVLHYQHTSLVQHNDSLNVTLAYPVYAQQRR
Excerpt: PI3Kδ assay: The PIP3 product is detected by displacement of biotin-PIP3 from an energy transfer complex consisting of Europium labeled anti-GST monoclonal antibody, a GST-tagged pleckstrin homology (PH) domain, biotinylated PIP3 and Streptavidin-Allophycocyanin (APC). Excitation of Europium in the complex results in an energy transfer to the APC and a fluorescent emission at 665 nm. The PIP3 product formed by PI 3-Kinase(h) activity displaces biotin-PIP3 from the complex resulting in a loss of energy transfer and thus a decrease in signal. This is a 3-step reaction: First, the kinase reaction with PIP2 substrate is carried out in the presence of ATP (10 μM), and the reaction is quenched with stop Solution, and then finally detect by adding Detection Mixture followed by incubation (10 min). Reaction procedure: 1) Prepare substrate in freshly prepared Reaction Buffer. 2) Deliver kinase into the substrate solution and gently mix. 3) Deliver compounds in 100% DMSO (1 μM) into the kinase reaction mixture by Acoustic technology (Echo550; nanoliter range), incubate for 10 min at RT. 4) Deliver ATP into the reaction mixture to initiate the reaction. 5) Incubate for 30 min at 30° C. 6) Quench the reaction with Stop Solution. 7) Add Detection Mixture, and incubate for overnight. 8) Measure HTRF: Ex=320 nm, ratio of Em=615 nm and Em=665 nm. The emission ratio is converted into μM PIP3 production based on PIP3 standard curves. The nonlinear regression to obtain the standard curve and IC50 values are performed using Graphpad Prism software. Assay Buffer: HEPES 50 mM (pH7.0), NaN3 0.02%, BSA 0.01%, Orthovanadate 0.1 mM, 1% DMSO. Detection buffer: HEPES 10 mM (pH7.0), BSA 0.02%, KF 0.16 M, EDTA 4 mM. Substrate: 10 μM PIP2 substrate (PI(4,5)P2).
Compounds of the invention were profiled in a 10 dose IC50 panel against PI3Kα, PI3Kβ, and PI3Kγ kinases, provided by Reaction Biology Corporation, applied to the PI3Kδ protocol provided in Example B1.

Row | SMILES | BMX/ETK @ 0.3 μM (% Inh) [1] | IC50 [2] | further results
1 | Nc1ncnc2c1c(-c1ccc(F)c(O)c1)nn2C1CCc2ccccc2C1 (racemic) [Compound No. 26, 5-(4-amino-1-(1,2,3,4-tetrahydronaphthalen-2-yl)-1H-pyrazolo[3,4-d]pyrimidin-3-yl)-2-fluorophenol] | 92.36 % Inh | – | PI3Kα @ 0.3 μM (% Inh) [2]: 53.79 % Inh
2 | Nc1ncnc2c1c(-c1ccc3cc[nH]c3c1)nn2C1CCc2ccccc2C1 (racemic) [compound 18, 3-(1H-indol-6-yl)-1-(1,2,3,4-tetrahydronaphthalen-2-yl)-1H-pyrazolo[3,4-d]pyrimidin-4-amine] | 73.26 % Inh | – | PI3Kα @ 0.3 μM (% Inh) [2]: 33.14 % Inh
3 | Nc1ncnc2c1c(-c1cc(O)cc(F)c1)nn2C1CCc2ccccc2C1 (single isomer, unassigned) [6a, 3-(4-amino-1-(1,2,3,4-tetrahydronaphthalen-2-yl)-1H-pyrazolo[3,4-d]pyrimidin-3-yl)-5-fluorophenol] | – | – | BMX/ETK @ 0.3 μM (% Inh) ([1]; 0.3 µM): 84.79 % Inh; PI3Kα @ 0.3 μM (% Inh) ([2]; 0.3 µM): 85.6 % Inh
4 | Nc1ncnc2c1c(-c1cc(O)cc(F)c1)nn2C1CCc2ccccc2C1 (single isomer, unassigned) [6b, 3-(4-amino-1-(1,2,3,4-tetrahydronaphthalen-2-yl)-1H-pyrazolo[3,4-d]pyrimidin-3-yl)-5-fluorophenol] | – | – | BMX/ETK @ 0.3 μM (% Inh) ([1]; 0.3 µM): 71.49 % Inh; PI3Kα @ 0.3 μM (% Inh) ([2]; 0.3 µM): 91.35 % Inh
5 | C=CC(=O)N1CC(n2nc(-c3cc(O)cc(F)c3)c3c(N)ncnc32)Cc2cc(C)ccc21 (single isomer, unassigned) [31b, 1-(3-(4-amino-3-(3-fluoro-5-hydroxyphenyl)-1H-pyrazolo[3,4-d]pyrimidin-1-yl)-6-methyl-3,4-dihydroquinolin-1(2H)-yl)prop-2-en-1-one] | 88.04 % Inh | 0.249 µM | –
6 | Nc1ncnc2c1c(-c1ccc(F)c(O)c1)nn2C1CCc2ccccc2C1 (single isomer, unassigned) [Compound No. 26a, 5-(4-amino-1-(1,2,3,4-tetrahydronaphthalen-2-yl)-1H-pyrazolo[3,4-d]pyrimidin-3-yl)-2-fluorophenol] | – | 0.143 µM | IC50 [1]: 0.0031 µM
7 | Nc1ncnc2c1c(-c1ccc(F)c(O)c1)nn2C1CCc2ccccc2C1 (single isomer, unassigned) [Compound No. 26b, 5-(4-amino-1-(1,2,3,4-tetrahydronaphthalen-2-yl)-1H-pyrazolo[3,4-d]pyrimidin-3-yl)-2-fluorophenol] | – | 0.161 µM | IC50 [1]: 0.0062 µM
8 | Nc1ncnc2c1c(-c1ccc(F)c(O)c1)nn2C1Cc2ccccc2C1 [Compound No. 29, 5-(4-amino-1-indan-2-yl-pyrazolo[3,4-d]pyrimidin-3-yl)-2-fluoro-phenol] | – | 0.0731 µM | IC50 [1]: 0.0008 µM
9 | COc1cc(-c2nn(C3Cc4ccccc4C3)c3ncnc(N)c23)ccc1C [Compound No. 49, 1-(2,3-dihydro-1H-inden-2-yl)-3-(3-methoxy-4-methylphenyl)-1H-pyrazolo[3,4-d]pyrimidin-4-amine] | 75.85 % Inh | 0.504 µM | –
10 | Nc1ncnc2c1c(-c1ccc(Cl)c(O)c1)nn2C1Cc2ccccc2C1 [Compound No. 56, 5-[4-amino-1-(2,3-dihydro-1H-inden-2-yl)-1H-pyrazolo[3,4-d]pyrimidin-3-yl]-2-chlorophenol] | 86.63 % Inh | 0.186 µM | –
11 | Nc1ncnc2c1c(-c1cc(O)cc(F)c1)cn2C1Cc2ccccc2C1 [Compound No. 63, 3-[4-amino-7-(2,3-dihydro-1H-inden-2-yl)-7H-pyrrolo[2,3-d]pyrimidin-5-yl]-5-fluorophenol] | 94.69 % Inh | 0.0747 µM | –
12 | COc1ccc(-c2nn(C3Cc4ccccc4C3)c3ncnc(N)c23)cc1O [Compound No. 68, 5-[4-amino-1-(2,3-dihydro-1H-inden-2-yl)-1H-pyrazolo[3,4-d]pyrimidin-3-yl]-2-methoxyphenol] | 78.92 % Inh | 0.014 µM | –
13 | Nc1ncnc2c1c(-c1cc(O)c(F)c(F)c1)nn2C1Cc2ccccc2C1 [Compound No. 81, 5-[4-amino-1-(2,3-dihydro-1H-inden-2-yl)-1H-pyrazolo[3,4-d]pyrimidin-3-yl]-2,3-difluorophenol] | 85.6 % Inh | 0.0211 µM | –
14 | Nc1ncnc2c1c(-c1cc(F)c3c(c1)NCCO3)nn2C1Cc2ccccc2C1 [Compound No. 84, 1-(2,3-dihydro-1H-inden-2-yl)-3-(8-fluoro-3,4-dihydro-2H-1,4-benzoxazin-6-yl)-1H-pyrazolo[3,4-d]pyrimidin-4-amine] | 62.51 % Inh | 0.638 µM | –
15 | Nc1ncnc2c1c(-c1ccc(Cl)c(O)c1)cn2C1Cc2ccccc2C1 [Compound No. 93, 5-[4-amino-7-(2,3-dihydro-1H-inden-2-yl)-7H-pyrrolo[2,3-d]pyrimidin-5-yl]-2-chlorophenol] | 110.06 % Inh | 0.0509 µM | –
16 | Nc1ncnc2c1c(-c1ccc(Cl)c(O)c1F)nn2C1Cc2ccccc2C1 [Compound No. 100, 3-[4-amino-1-(2,3-dihydro-1H-inden-2-yl)-1H-pyrazolo[3,4-d]pyrimidin-3-yl]-6-chloro-2-fluorophenol] | 107.37 % Inh | 0.0701 µM | –
17 | Nc1ncnc2c1c(-c1cc(O)c(F)c(F)c1)cn2C1Cc2ccccc2C1 [Compound No. 101, 5-[4-amino-7-(2,3-dihydro-1H-inden-2-yl)-7H-pyrrolo[2,3-d]pyrimidin-5-yl]-2,3-difluorophenol] | 97.14 % Inh | 0.12 µM | –
18 | Nc1ncnc2c1c(-c1cc(O)c(F)c(C(F)(F)F)c1)nn2C1Cc2ccccc2C1 [Compound No. 102, 5-[4-amino-1-(2,3-dihydro-1H-inden-2-yl)-1H-pyrazolo[3,4-d]pyrimidin-3-yl]-2-fluoro-3-(trifluoromethyl)phenol] | 4.6 % Inh | 0.0211 µM | –
19 | Nc1ncnc2c1c(-c1cc(O)c(Cl)c(Cl)c1)cn2C1Cc2ccccc2C1 [Compound No. 107, 5-[4-amino-7-(2,3-dihydro-1H-inden-2-yl)-7H-pyrrolo[2,3-d]pyrimidin-5-yl]-2,3-dichlorophenol] | 90.55 % Inh | 0.0565 µM | –
20 | Nc1ncnc2c1c(-c1ccc(Br)c(O)c1)nn2C1Cc2ccccc2C1 [compound 2, 5-(4-amino-1-(2,3-dihydro-1H-inden-2-yl)-1H-pyrazolo[3,4-d]pyrimidin-3-yl)-2-bromophenol] | – | 0.0173 µM | IC50 [1]: 0.0077 µM
21 | N#Cc1cc(-c2cn(C3Cc4ccccc4C3)c3ncnc(N)c23)cc(O)c1F [compound 115, 5-[4-amino-7-(2,3-dihydro-1H-inden-2-yl)-7H-pyrrolo[2,3-d]pyrimidin-5-yl]-2-fluoro-3-hydroxybenzonitrile] | 72.12 % Inh | – | –
